{
  "source": "patent US9993001B2",
  "about": "“Herbicidal composition” (ISHIHARA SANGYO KAISHA, LTD., priority 2014, dated 2018)",
  "format_in_all_cases": "in vivo",
  "key": {"[1]": {"system": "spotted knotweed (Polygonum lapathifolium L.)", "assay": "Test Example 2: soybean field, soil treatment, metobromuron + S-metolachlor", "conditions": "Persicaria lapathifolia; 1000 g/ha; soil treatment, soybean field; 50th day after treatment; read-out: Growth inhibition rate of spotted knotweed (%) Measured value", "excerpt": "(§1) When the herbicidal activity in a case where two active ingredients are combined, is larger than the simple sum of the respective herbicidal activities of the two active ingredients (the expected activity), it is called a synergistic effect. The activity expected by the combination of two active ingredients can be calculated as follows (Colby S. R., “Weed”, vol. 15, p. 20-22, 1967). E=α+β−(α×β[…]) where α: growth inhibition rate when treated with x (g/ha) of herbicide X, • β: growth inhibition rate when treated with y (g/ha) of herbicide Y, • E: growth inhibition rate expected when treated with x (g/ha) of herbicide X and y (g/ha) of herbicide Y.\n(§2) On the 19th day after treatment, the state of growth of barnyardgrass was visually observed and evaluated in accordance with the following standards. The growth inhibition rate (%) [measured value] and the growth inhibition rate (%) [calculated value] calculated by the Colby's method, are shown in Table 2.\n(§3) Growth inhibition rate (%)=inhibition rate) (%) of 0 (equivalent to the non-treated area) to 100 (complete kill) […]\nOn the 50th day after treatment, the state of growth of spotted knotweed was visually observed and evaluated in the same manner as in Test Example 1."}, "[2]": {"system": "Nepalese Smartweed (Persicaria nepalensis (Meisn.) H. Gross)", "assay": "Test Example 3: soybean field, soil treatment, metobromuron + S-metolachlor", "conditions": "1000 g/ha, soil treatment, soybean field, 50th day after treatment, read-out: Growth inhibition rate of Nepalese Smartweed (%) Measured value", "excerpt": "as §1, §2, §3\nOn the 50th day after treatment, the state of growth of Nepalese Smartweed (Persicaria nepalensis (Meisn.) H. Gross) which occurred naturally, was visually observed and evaluated in the same manner as in Test Example 1."}, "[3]": {"system": "Nepalese Smartweed (Persicaria nepalensis (Meisn.) H. Gross)", "assay": "Test Example 6: adzuki bean field, soil treatment, metobromuron + S-metolachlor", "conditions": "1000 g/ha, soil treatment, adzuki bean field, 39th day after treatment, read-out: Growth inhibition rate of Nepalese Smartweed (%) Measured value", "excerpt": "as §1, §2\n(§4) Growth inhibition rate (%)=inhibition rate) (%) of 0 (equivalent to the non-treated area) to 100 (complete kill)\nIn an adzuki bean agricultural field (9.6 square meters per one test section), predetermined amounts of SC containing metobromuron as active ingredient (same as in Test Example 1) and EC containing S-metolachlor as active ingredient (same as in Test Example 2) were diluted with water corresponding to 1,000 L per hectare and applied for soil treatment, prior to germination of adzuki bean and weeds.\nOn the 39th day after treatment, the state of growth of Nepalese Smartweed (Persicaria nepalensis (Meisn.) H. Gross) which occurred naturally, was visually observed and evaluated in the same manner as in Test Example 1."}, "[4]": {"system": "common lambsquarters (Chenopodium album L.)", "assay": "Test Example 8: corn field, soil treatment, metobromuron + S-metolachlor", "conditions": "1000 g/ha, soil treatment, corn field, 28th day after treatment, read-out: Growth inhibition rate of common lambsquarters (%) Measured value", "excerpt": "as §1, §2, §3\nOn the 28th day after treatment, the state of growth of common lambsquarters (Chenopodium album L.) which occurred naturally, was visually observed and evaluated in the same manner as in Test Example 1."}, "[5]": {"system": "redroot pigweed (Amaranthus retroflexus L.)", "assay": "Test Example 9: corn field, soil treatment, metobromuron + S-metolachlor", "conditions": "1000 g/ha, soil treatment, corn field, 49th day after treatment, read-out: Growth inhibition rate of redroot pigweed (%) Measured value", "excerpt": "as §1, §2, §3\nOn the 49th day after treatment, the state of growth of redroot pigweed (Amaranthus retroflexus L.) which occurred naturally, was visually observed and evaluated in the same manner as in Test Example 1."}, "polygonaceae weeds": {"system": "polygonaceae weeds", "assay": "Test Example 10: corn field, soil treatment, metobromuron + pendimethalin", "conditions": "600 g/ha; soil treatment, corn field; 49th day after treatment; read-out: Growth inhibition rate of Polygonaceae weeds (%) Measured value", "excerpt": "as §1, §2, §3\nOn the 49th day after treatment, the state of growth of polygonaceae weeds which occurred naturally, was visually observed and evaluated in the same manner as in Test Example 1, The results are shown in Table 11."}, "[6]": {"system": "large crabgrass (Digitaria sanquinalis L.)", "assay": "Test Example 28: pot, soil treatment, metobromuron + pendimethalin", "conditions": "62.5 g/ha, soil treatment, pot, 27th day after treatment, read-out: Growth inhibition rate of large crabgrass (%) Measured value", "excerpt": "as §1, §2, §4\nSoil was put into a 1/300,000 ha pot, and seeds of large crabgrass (Digitaria sanquinalis L.) were sown. On the day after seeding, predetermined amounts of SC containing metobromuron as active ingredient (same as in Test Example 1) and EC containing pendimethalin as active ingredient (same as in Test Example 10) were diluted with water corresponding to 1,000 L per hectare and applied for soil treatment.\nOn the 27th day after treatment, the state of growth of large crabgrass was visually observed and evaluated in the same manner as in Test Example 1."}, "[7]": {"system": "large crabgrass (Diqitaria sanquinalis L.)", "assay": "Test Example 11: corn field, foliar treatment, metobromuron + nicosulfuron", "conditions": "Digitaria sanguinalis; 30 g/ha; foliar treatment at 1.5 to 2.0 leaf stage, corn field; 30th day after treatment; read-out: Growth inhibition rate of large crabgrass (%) Measured value", "excerpt": "as §1, §2, §3\nOn the 30th day after treatment, the state of growth of large crabgrass was visually observed and evaluated in the same manner as in Test Example 1."}, "[8]": {"system": "common purslane (Portulaca oleracea L.)", "assay": "Test Example 12: corn field, soil treatment, metobromuron + nicosulfuron", "conditions": "30 g/ha, soil treatment, corn field, 30th day after treatment, read-out: Growth inhibition rate of common purslane (%) Measured value", "excerpt": "as §1, §2, §3\nOn the 30th day after treatment, the state of growth of common purslane (Portulaca oleracea L.) which occurred naturally, was visually observed and evaluated in the same manner as in Test Example 1."}},
  "data": [
    {"molecule": "CCc1cccc(C)c1N(C(=O)CCl)[C@@H](C)COC", "note": "[S-Metolachlor, 2-chloro-N-(6-ethyl-o-tolyl)-N-[(1S)-2-methoxy-1-methylethyl]acetamide]", "values": [
      {"measurement": "inhibition at 1000 g/ha", "setting": "[1]", "value": 59, "unit": "%"},
      {"measurement": "inhibition at 1000 g/ha", "setting": "[2]", "value": 10, "unit": "%"},
      {"measurement": "inhibition at 1000 g/ha", "setting": "[3]", "value": 75, "unit": "%"},
      {"measurement": "inhibition at 1000 g/ha", "setting": "[4]", "value": 69, "unit": "%"},
      {"measurement": "inhibition at 1000 g/ha", "setting": "[5]", "value": 45, "unit": "%"}
    ]},
    {"molecule": "CCC(CC)Nc1c([N+](=O)[O-])cc(C)c(C)c1[N+](=O)[O-]", "note": "[Pendimethalin, N-(1-ethylpropyl)-2,6-dinitro-3,4-xylidine]", "values": [
      {"measurement": "inhibition at 600 g/ha", "setting": "polygonaceae weeds", "value": 73, "unit": "%"},
      {"measurement": "inhibition at 62.5 g/ha", "setting": "[6]", "value": 70, "unit": "%"}
    ]},
    {"molecule": "COc1cc(OC)nc(NC(=O)NS(=O)(=O)c2ncccc2C(=O)N(C)C)n1", "note": "[Nicosulfuron, 2-[(4,6-dimethoxypyrimidin-2-ylcarbamoyl)sulfamoyl]-N,N-dimethyl nicotinamide]", "values": [
      {"measurement": "inhibition at 30 g/ha", "setting": "[7]", "value": 10, "unit": "%"},
      {"measurement": "inhibition at 30 g/ha", "setting": "[8]", "value": 55, "unit": "%"}
    ]}
  ]
}
